Results reported in patent US10697020B2, “MicroRNA-129 as a biomarker for colorectal cancer” (THE RESEARCH FOUNDATION FOR THE STATE UNIVERSITY OF NEW YORK, priority 2013, dated 2020).
Where two headings read alike, the source gives them in different places.

Experiments:
BCL2 = assay: Western immunoblot analysis of BCL2 protein after miRNA/siRNA transfection; format: cell-based, human; conditions: HCT116, RKO and SW480 cells; 100 nM transfected; 48 h; vs negative control miRNA
Experimental: (§1) HCT116, RKO and SW480 cells were plated in 6-well plates at 2×10^5, 1×10^5 and 1×10^5 per well, respectively. Twenty-four hours after plating, 100 nM of miR-129 precursor (Ambion, Carlsbad, Calif., USA) or siRNA against BCL2 (Dharmacon, Lafayette, Colo., USA) were transfected to the cells with oligofectamine (Invitrogen, Carlsbad, Calif., USA) in accordance with the manufacturer's protocol. Negative miRNA (Ambion) was also transfected as a negative control.
(§2) Forty-eight hours after transfection, cells were lysed with RIPA buffer (Sigma-Aldrich), and Western immunoblotting was performed using standard procedures. The primary antibodies used for the analysis were mouse anti-human BCL2 antibody (1:200; Thermo Fisher Scientific, Fremont, Calif., USA), rabbit anti-human cleaved caspase-3 antibody (1:200; Cell Signaling Technology, Beverly, Mass., USA), rabbit anti-human cleaved caspase-9 antibody (1:200; Cell Signaling Technology), mouse anti-human E2F3 antibody (1:5000; Millipore, Billerica, Mass., USA), mouse anti-human TS antibody (1:400; Millipore), mouse anti-human GAPDH antibody (1:1000, Santa Cruz Biotechnology, Santa Cruz, Calif., USA) or mouse anti-human α-tubulin antibody (1:1000; Millipore). […] HRP activity was detected with SuperSignal West Pico Chemiluminescent Substrate (Thermo Fisher Scientific) and visualized in an UVP Bioimaging system.

3′-UTR of BCL2 mRNA = assay: Luciferase assay, pMIR-REPORT-3′-UTR-BCL2 in HCT116 cells; format: cell-based, human; conditions: 10 nM, 24 h, normalized to negative miRNA
Experimental: The predicted miR-129 binding sequence (wild-type, underlined) or a mismatch sequence (mutant, italic underlined) in the 3′UTR of Bcl2 mRNA were synthesized with SpeI and PmeI restriction site overhangs (Invitrogen). After annealing, double strand oligonucleotides were inserted into the pMIR-REPORT plasmid (Invitrogen), downstream of the firefly luciferase reporter. The sequences of these synthesized oligonucleotides are:
Twenty-four hours before transfection, 1.5×10^4 cells were plated in 96-well plate. 10 nM of miR-129 or negative miRNA was transfected into cells together with 100 ng of pMIR-REPORT-3′-UTR-BCL2 (wild-type or mutant) and 1 ng of Renilla luciferase plasmid pRL-SV40 (Promega, Madison, Wis., USA) by DharmaFect Duo (Dharmacon, Lafayette, Colo., USA) following the manufacturer's protocol. Luciferase assay was performed 24 hour after transfection by dual-luciferase reporter assay system (Promega). For each sample, firefly luciferase activity was normalized to Renilla luciferase activity and the inhibition by miR-129 was normalized to the control miRNA.

[1] = tested on: HCT116, RKO and SW480 cells; assay: Apoptosis assay (annexin V / propidium iodide, flow cytometry); format: cell-based, human; conditions: all colorectal cancer cell lines tested (HCT116, RKO, SW480); 48 h after transfection; vs negative miRNA
Experimental: as §1
Forty-eight hours after transfection, cells were harvested, stained with propidium iodide and anti annexin-V antibody (Annexin V-FITC Apoptosis Detection kit, BD Biosciences, San Jose, Calif., USA) following the manufacturer's protocol, and stained cells were detected by flow cytometry. The experiments for the apoptosis assay were performed at least three times.

[2] = tested on: cleaved caspase-3 and cleaved caspase-9; assay: Western immunoblot analysis of cleaved caspases in HCT116 cells; format: cell-based, human; conditions: HCT116 cells with ectopic expression of miR-129
Experimental: as §1, §2

RKO cells [3] = assay: Cell proliferation assay (WST-1), RKO; format: cell-based, human; conditions: day 5
Experimental: as §1
Twenty-four hours after transfection, cells were seeded in 96-well plates at a density of 2000 cells per well. The cell proliferation assay was performed on days 1, 3 and 5 by incubating 10 μl WST-1 (Roche Applied Science, Mannheim, Germany) in the culture medium for 1 h and reading the absorbance at 450 and 630 nm. The cell proliferation rate was calculated by […]. Experiments for the cell proliferation assay were performed at least three times.

RKO cells [4] = assay: Cell cycle analysis (flow cytometry), RKO; format: cell-based, human; conditions: 36 h after transfection
Experimental: as §1
Thirty-six hours after transfection, cells were harvested and resuspended at 0.5 to 1×10^6 cells/m in modified Krishan buffer supplemented with 0.02 mg/ml RNase H (Invitrogen) and 0.05 mg/ml propidium iodide (Sigma-Aldrich, St. Louis, Mo., USA) (See, Krishan A. The Journal of Cell Biology. 1975; 66(1):188-93). Stained cells were detected by flow cytometry and results were analyzed with Modfit LT™ software. The experiments for cell cycle analysis were performed at least three times.

HCT116 cells = assay: 5-FU treatment and cytotoxicity assay (WST-1); format: cell-based; conditions: 72 hours, read-out: IC50 (50% growth inhibition, WST-1)
Experimental: Twenty-four hours after transfection, HCT116 cells were plated in 96-well plates at 2×10^3 cells per well in triplicates in 100 μl of medium. After 24 hours, fresh medium containing 5-FU alone (ranged from 1 to 4 μM) or miR-129 precursor alone (ranged from 10 nM to 40 nM) or 5-FU and miR-129 together (at a constant ratio 1:10, with increasing concentrations of both compounds) were added, and cells were cultured for an additional 72 hours. Cell viability was measured using the WST-1 assay, and concentration-dependent curves were generated based on the cell viability. The combination index was calculated by CompuSyn software. See, Chou T C et al. (2007).

E2F3 = assay: Western immunoblot analysis of E2F3 protein in HCT116 cells; format: cell-based, human; conditions: HCT116 cells after miR-129 transfection
Experimental: as §1, §2

Substance: miR-129: nucleic acid having a sequence of CUUUUUGCGGUCUGGGCUUGC (SEQ ID NO. 1); miR-129 precursor from Ambion used (chemistry not given here; listed as Homo sapiens)
- BCL2 protein expression (BCL2): reduced the BCL2 protein expression
- firefly luciferase activity of pMIR-REPORT-3′-UTR-BCL2 (wild-type) (3′-UTR of BCL2 mRNA): significantly inhibited the luciferase activity
- luciferase activity of reporter with 3′-UTR of BCL2 with three point mutations in the miR-129 binding site (mutant) (3′-UTR of BCL2 mRNA): did not inhibit the luciferase activity
- apoptosis (proportion of cells annexin V positive and propidium iodide negative) [1]: increased apoptosis significantly
- protein levels of cleaved caspase-9 and cleaved caspase-3 [2]: elevated the protein levels
- cell proliferation reduced compared to negative controls (RKO cells [3]): 43.9%
- cell cycle arrest (G1/S and G2/S ratios) (RKO cells [4]): at G1 checkpoint
- IC50 (HCT116 cells; miR-129 alone): 11.2 nM
- IC50 (HCT116 cells; miR-129 when combined with 5-FU (fixed ratio 1:10)): 6.3 nM
- E2F3 protein levels (E2F3): reduce E2F3 protein levels
